Measured values from publication PMC10914734 (Signal Transduction and Targeted Therapy, 2024).

Each compound was assayed against Human CTSL (Homo sapiens, UniProt P07711) (assay: FRET-based cleavage assay, enzymatic inhibition of human CTSL). Conditions: not given.
Chain of Human CTSL (P07711 114-333): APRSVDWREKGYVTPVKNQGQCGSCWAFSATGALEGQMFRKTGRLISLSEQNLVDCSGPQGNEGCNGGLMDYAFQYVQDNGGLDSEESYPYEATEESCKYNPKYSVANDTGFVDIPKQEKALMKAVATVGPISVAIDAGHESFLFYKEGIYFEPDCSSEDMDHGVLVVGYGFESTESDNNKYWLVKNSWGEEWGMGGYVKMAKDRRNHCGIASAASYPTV
Compound `O=C(N[C@@H](Cc1ccc(F)cc1)C(=O)N[C@H](/C=C/S(=O)(=O)c1ccccc1)C[C@@H]1CCCNC1=O)c1cc2ccccc2o1` [14c, N-((S)-3-(4-fluorophenyl)-1-oxo-1-(((S,E)-1-((S)-2-oxopiperidin-3-yl)-4-(phenylsulfonyl)but-3-en-2-yl)amino)propan-2-yl)benzofuran-2-carboxamide] has an IC50 of 50.3 ± 12.1 nM.
For `O=C(N/N=C/[C@H](C[C@@H]1CCCNC1=O)NC(=O)[C@H](Cc1ccc(F)cc1)NC(=O)c1cc2ccccc2o1)c1ccccc1` [14e, N-((S)-1-(((S,E)-1-(2-benzoylhydrazineylidene)-3-((S)-2-oxopiperidin-3-yl)propan-2-yl)amino)-3-(4-fluorophenyl)-1-oxopropan-2-yl)benzofuran-2-carboxamide], the IC50 was 3940 nM.
For `O=C(N[C@@H](Cc1ccc(F)cc1)C(=O)N[C@H](/C=N/NC(=O)C1CCCCC1)C[C@@H]1CCCNC1=O)c1cc2ccccc2o1` [14f, N-((S)-1-(((S,E)-1-(2-(cyclohexanecarbonyl)hydrazineylidene)-3-((S)-2-oxopiperidin-3-yl)propan-2-yl)amino)-3-(4-fluorophenyl)-1-oxopropan-2-yl)benzofuran-2-carboxamide], the IC50 was 8530 nM.
For `O=C(N[C@@H](Cc1ccc(F)cc1)C(=O)N[C@H](/C=N/NC(=O)C1CC1)C[C@@H]1CCCNC1=O)c1cc2ccccc2o1` [14g, N-((S)-1-(((S,E)-1-(2-(cyclopropanecarbonyl)hydrazineylidene)-3-((S)-2-oxopiperidin-3-yl)propan-2-yl)amino)-3-(4-fluorophenyl)-1-oxopropan-2-yl)benzofuran-2-carboxamide], the IC50 was 1320 nM.
Work on `O=C(N[C@@H](Cc1ccc(F)cc1)C(=O)N[C@H](/C=N/Nc1ncccn1)C[C@@H]1CCCNC1=O)c1cc2ccccc2o1` [14h, N-((S)-3-(4-fluorophenyl)-1-oxo-1-(((S,E)-1-((S)-2-oxopiperidin-3-yl)-3-(2-(pyrimidin-2-yl)hydrazineylidene)propan-2-yl)amino)propan-2-yl)benzofuran-2-carboxamide] yielded an IC50 of 1600 nM.
`O=C(O)/C(F)=C/[C@H](C[C@@H]1CCCNC1=O)NC(=O)[C@H](CC1CCCCC1)NC(=O)c1cc2ccccc2o1` [14i, (S,Z)-4-((S)-2-(benzofuran-2-carboxamido)-3-cyclohexylpropanamido)-2-fluoro-5-((S)-2-oxopiperidin-3-yl)pent-2-enoic acid] was tested, and the IC50 was 2160 nM.
`CC1(C)[C@@H]2[C@@H](C(=O)N[C@@H](C[C@@H]3CCCNC3=O)C(=O)C(=O)NCc3ccccc3)N(C(=O)c3cc4ccccc4o3)C[C@@H]21` [14m, (1R,2S,5S)-3-(benzofuran-2-carbonyl)-N-((S)-4-(benzylamino)-3,4-dioxo-1-((S)-2-oxopiperidin-3-yl)butan-2-yl)-6,6-dimethyl-3-azabicyclo[3.1.0]hexane-2-carboxamide] showed an IC50 of 1870 nM.

Same assay, conditions: read-out: IC50, enzymatic inhibitory activity against human CTSL; mean ± SD
For `O=C(N[C@@H](CC1C=CC=CC1)C(=O)N[C@H](/C=C/S(=O)(=O)c1ccccc1)C[C@@H]1CCCNC1=O)c1cc2ccccc2o1` (stereo partly drawn) [14d, N-((2S)-3-(cyclohexa-2,4-dien-1-yl)-1-oxo-1-(((S,E)-1-((S)-2-oxopiperidin-3-yl)-4-(phenylsulfonyl)but-3-en-2-yl)amino)propan-2-yl)benzofuran-2-carboxamide], the IC50 was 77.2 ± 12 nM.

Same assay, conditions: read-out: Inhibition rate against human CTSL
Compound `CCOC(=O)/C(F)=C/[C@H](C[C@@H]1CCCNC1=O)NC(=O)[C@H](CC1CCCCC1)NC(=O)c1cc2ccccc2o1` [14j, Ethyl (S,Z)-4-((S)-2-(benzofuran-2-carboxamido)-3-cyclohexylpropanamido)-2-fluoro-5-((S)-2-oxopiperidin-3-yl)pent-2-enoate] has an inhibition at 1 µM of 30%.
With `O=C(NC1CC1)/C(F)=C/[C@H](C[C@@H]1CCCNC1=O)NC(=O)[C@H](CC1CCCCC1)NC(=O)c1cc2ccccc2o1` [14k, N-((S)-3-cyclohexyl-1-(((S,Z)-5-(cyclopropylamino)-4-fluoro-5-oxo-1-((S)-2-oxopiperidin-3-yl)pent-3-en-2-yl)amino)-1-oxopropan-2-yl)benzofuran-2-carboxamide] the inhibition at 1 µM was 37%.
`O=C(NCc1ccccc1)C(=O)[C@H](C[C@@H]1CCCNC1=O)NC(=O)[C@@H]1[C@H]2CCC[C@H]2CN1C(=O)c1cc2ccccc2o1` [14l, (1S,3aR,6aS)-2-(benzofuran-2-carbonyl)-N-((S)-4-(benzylamino)-3,4-dioxo-1-((S)-2-oxopiperidin-3-yl)butan-2-yl)octahydrocyclopenta[c]pyrrole-1-carboxamide] gave an inhibition at 1 µM of 12%.
